Patent US20250313563A1, “GLYCOGEN SYNTHASE KINASE 3 INHIBITORS AND USES THEREOF” (The Broad Institute, Inc., priority 2022, published 2025)
Where two headings read alike, the source gives them in different places.

Key:
[1] = biological target: GSK3α (GST-full length GSK3α) (Homo sapiens (Human), UniProt P49840); assay: GSK3α TR-FRET kinase assay; format: biochemical
Outline: (§1)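 Full-length GST-tagged human enzyme (1 nM) is exposed to test compound for 30 min before substrates are added. Phosphorylation of a primed biotinylated glycogen synthase peptide proceeds 100 min at room temperature at low ATP (4 μM α; 2 μM β) or high ATP (1 mM). Product is quantified by TR-FRET.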

[2] = biological target: GSK3b (GST-full length GSK3b) (Homo sapiens (Human), UniProt P49841); assay: GSK3b TR-FRET kinase assay; format: biochemical
Outline: as §1

[3] = 1 nM GSK3α, 4 μM ATP, 30 minute preincubation, read-out: GSK3-A TR-FRET BIOCHEMICAL (TR-FRET), IC50
[4] = 1 nM GSK3b, 2 μM ATP, 30 minute preincubation, read-out: GSK3-B TR-FRET BIOCHEMICAL (TR-FRET), IC50
[5] = 1 nM GSK3α, 4 μM ATP, 30 minute preincubation, Table 16, read-out: GSK3-A TR-FRET BIOCHEMICAL (TR-FRET), IC50
[6] = 1 nM GSK3b, 2 μM ATP, 30 minute preincubation, Table 16, read-out: GSK3-B TR-FRET BIOCHEMICAL (TR-FRET), IC50
[7] = read-out: GSK3-A (TR-FRET 1 mM ATP), GMean, IC50, 1 mM ATP, geometric mean
[8] = read-out: GSK3-B (TR-FRET 1 mM ATP), GMean, IC50, 1 mM ATP, geometric mean

Sequence of GSK3b (GST-full length GSK3b) (P49841 whole entry): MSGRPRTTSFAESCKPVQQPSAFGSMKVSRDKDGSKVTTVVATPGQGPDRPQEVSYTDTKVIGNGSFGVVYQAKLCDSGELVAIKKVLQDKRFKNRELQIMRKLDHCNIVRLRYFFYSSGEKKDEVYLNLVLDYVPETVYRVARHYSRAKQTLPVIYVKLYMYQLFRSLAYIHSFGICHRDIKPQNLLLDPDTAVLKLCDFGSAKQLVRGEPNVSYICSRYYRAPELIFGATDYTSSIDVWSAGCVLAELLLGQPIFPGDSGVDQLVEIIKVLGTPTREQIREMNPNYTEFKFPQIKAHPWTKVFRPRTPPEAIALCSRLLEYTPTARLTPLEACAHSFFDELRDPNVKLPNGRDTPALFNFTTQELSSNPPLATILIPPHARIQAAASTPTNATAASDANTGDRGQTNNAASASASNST
Sequence of GSK3α (GST-full length GSK3α) (P49840 whole entry): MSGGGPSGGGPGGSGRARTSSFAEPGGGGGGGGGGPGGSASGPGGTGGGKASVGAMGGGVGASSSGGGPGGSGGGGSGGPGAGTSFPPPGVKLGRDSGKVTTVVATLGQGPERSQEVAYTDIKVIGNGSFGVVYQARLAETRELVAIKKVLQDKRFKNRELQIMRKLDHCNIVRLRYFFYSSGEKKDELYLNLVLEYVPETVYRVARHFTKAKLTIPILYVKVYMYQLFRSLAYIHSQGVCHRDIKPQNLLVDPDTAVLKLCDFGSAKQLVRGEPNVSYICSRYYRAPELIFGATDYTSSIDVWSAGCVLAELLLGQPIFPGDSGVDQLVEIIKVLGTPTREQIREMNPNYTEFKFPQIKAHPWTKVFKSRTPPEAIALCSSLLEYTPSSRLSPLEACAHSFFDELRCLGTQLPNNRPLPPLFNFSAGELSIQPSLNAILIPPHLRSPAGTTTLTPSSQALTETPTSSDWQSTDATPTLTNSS

SMILES | IC50 [1, 3] | IC50 [2, 4] | IC50 [1, 5] | IC50 [2, 6] | also measured
CC1(C)CC(=O)C2=C(C1)Nc1n[nH]cc1C21CC2(COC2)C1 [Compound 912168] | > 5000 nM | > 5000 nM | – | – | –
CCC1(c2cccc(S(=O)(=O)C(C)C)c2)C2=C(CC(C)(C)CC2=O)Nc2n[nH]cc21 (stereo not drawn) [Compound 912169] | – | – | ≤ 100 nM | ≤ 100 nM | –
CC1(C)CC(=O)C2=C(C1)Nc1n[nH]cc1C21CS(=O)(=O)C1 [Compound 912170] | – | – | 1000 to 5000 nM | > 5000 nM | –
CCC1(c2cccc(S(=O)(=O)C3CC3)c2)C2=C(CC(C)(C)CC2=O)Nc2n[nH]cc21 (stereo not drawn) [Compound 912171] | – | – | – | – | IC50 [1, 7]: ≤ 100 nM; IC50 [2, 8]: 100 to 1000 nM
COC[C@H]1C[C@]2(C1)C1=C(CC(C)(C)CC1=O)Nc1n[nH]cc12 [Compound 912173] | – | – | – | – | IC50 ([1]; 1 nM GSK3α, 4 μM ATP, 30 minute preincubation, Table 16, read-out: GSK3-A TR-FRET BIOCHEMICAL (TR-FRET)): 100 to 1000 nM; IC50 ([2]; 1 nM GSK3b, 2 μM ATP, 30 minute preincubation, Table 16, read-out: GSK3-B TR-FRET BIOCHEMICAL (TR-FRET)): 100 to 1000 nM
CC[C@@]1(c2cccc(C(F)(F)F)c2)C2=C(CCN(CC(F)(F)F)C2=O)Nc2n[nH]cc21 [Compound 912205] | > 5000 nM | > 5000 nM | – | – | –
CCC1(c2cccc(C(F)(F)F)c2)C2=C(CCN(CC(F)(F)F)C2=O)Nc2n[nH]cc21 (stereo not drawn) [Compound 912206] | ≤ 100 nM | 100 to 1000 nM | – | – | –
CC1(C)CC(=O)C2=C(C1)Nc1n[nH]cc1C21CCC2(CCC(=O)N2C(=O)OC(C)(C)C)CC1 (stereo not drawn) [Compound 912217] | 1000 to 5000 nM | > 5000 nM | – | – | –
CCC1(c2cccc(C(F)(F)F)c2)C2=C(CCNC2=O)Nc2n[nH]cc21 (stereo not drawn) [Compound 912622] | 100 to 1000 nM | 1000 to 5000 nM | – | – | –
CC[C@]1(c2cccc(C(F)(F)F)c2)C2=C(CCNC2=O)Nc2n[nH]cc21 [Compound 912668] | > 5000 nM | > 5000 nM | – | – | –
CC1(C)CC(=O)C2=C(C1)Nc1n[nH]cc1C21COC2(CN(S(=O)(=O)c3ccccc3)C2)C1 (stereo not drawn) [Compound 913002] | 100 to 1000 nM | 1000 to 5000 nM | – | – | –
CC[C@@]1(c2cccc(C(F)(F)F)c2)C2=C(CC(C)(C)NC2=O)Nc2n[nH]cc21 [Compound 913004] | > 5000 nM | > 5000 nM | – | – | –
CCC1(c2cccc(C(F)(F)F)c2)C2=C(CC(C)(C)NC2=O)Nc2n[nH]cc21 (stereo not drawn) [Compound 913006, 4-ethyl-7,7-dimethyl-4-(3-(trifluoromethyl)phenyl)-2,4,6,7,8,9-hexahydro-5H-pyrazolo[3,4-b][1,6]naphthyridin-5-one] | ≤ 100 nM | ≤ 100 nM | – | – | IC50 ([1]; GSK3-A (TR-FRET 1 mM ATP), GMean, IC50, 1 mM ATP, geometric mean): 100 to 1000 nM; IC50 ([2]; GSK3-B (TR-FRET 1 mM ATP), GMean, IC50, 1 mM ATP, geometric mean): > 5000 nM
CCC1(c2cccc(-c3ccncc3F)c2)C2=C(CC(C)(C)CC2=O)Nc2n[nH]c(C)c21 (stereo not drawn) [Compound 913017] | – | – | 100 to 1000 nM | 100 to 1000 nM | –
CCC1(c2cccc(-c3ccnc(C)c3)c2)C2=C(CC(C)(C)CC2=O)Nc2n[nH]c(C)c21 (stereo not drawn) [Compound 913018] | – | – | ≤ 100 nM | ≤ 100 nM | IC50 [1, 7]: 100 to 1000 nM; IC50 [2, 8]: 1000 to 5000 nM
CCC1(c2cccc(-c3ccnc(C(F)(F)F)c3)c2)C2=C(CC(C)(C)CC2=O)Nc2n[nH]c(C)c21 (stereo not drawn) [Compound 913020] | – | – | ≤ 100 nM | ≤ 100 nM | –
CC[C@@]1(c2cccc(-c3ccnc(N(C)C)c3)c2)C2=C(CC(C)(C)CC2=O)Nc2n[nH]c(C)c21 [Compound 913021] | – | – | ≤ 100 nM | ≤ 100 nM | –
CCC1(c2cccc(-c3ccncc3C)c2)C2=C(CC(C)(C)CC2=O)Nc2n[nH]c(C)c21 (stereo not drawn) [Compound 913022] | – | – | 100 to 1000 nM | 1000 to 5000 nM | –
CCC1(c2cccc(-c3ccnn3C)c2)C2=C(CC(C)(C)CC2=O)Nc2n[nH]c(C)c21 (stereo not drawn) [Compound 913023] | – | – | – | – | IC50 [1, 7]: ≤ 100 nM; IC50 [2, 8]: 100 to 1000 nM
CCC1(c2cccc(-c3cn[nH]c3)c2)C2=C(CC(C)(C)CC2=O)Nc2n[nH]c(C)c21 (stereo not drawn) [Compound 913025] | – | – | ≤ 100 nM | ≤ 100 nM | IC50 [1, 7]: ≤ 100 nM; IC50 [2, 8]: 100 to 1000 nM
CCC1(c2cccc(-c3c(C)nn(C)c3C)c2)C2=C(CC(C)(C)CC2=O)Nc2n[nH]c(C)c21 (stereo not drawn) [Compound 913026] | – | – | 100 to 1000 nM | 100 to 1000 nM | –
CCC1(c2cccc(-c3cnn(C4CC4)c3)c2)C2=C(CC(C)(C)CC2=O)Nc2n[nH]cc21 (stereo not drawn) [Compound 913028] | – | – | ≤ 100 nM | ≤ 100 nM | –
CC[C@@]1(c2cccc(-c3cn(C)nc3C(C)C)c2)C2=C(CC(C)(C)CC2=O)Nc2n[nH]c(C)c21 [Compound 913029] | – | – | ≤ 100 nM | ≤ 100 nM | –
CCC1(c2cccc(-c3cnn(C)c3)c2)C2=C(CC(C)(C)CC2=O)Nc2n[nH]c(C)c21 (stereo not drawn) [Compound 913031] | – | – | ≤ 100 nM | ≤ 100 nM | –
CC[C@@]1(c2cccc(-c3cncn3C)c2)C2=C(CC(C)(C)CC2=O)Nc2n[nH]c(C)c21 [Compound 913032] | – | – | ≤ 100 nM | ≤ 100 nM | IC50 [1, 7]: ≤ 100 nM; IC50 [2, 8]: ≤ 100 nM
CCC1(c2cccc(-c3cnn4c3CCCC4)c2)C2=C(CC(C)(C)CC2=O)Nc2n[nH]c(C)c21 (stereo not drawn) [Compound 913033] | – | – | 100 to 1000 nM | 1000 to 5000 nM | –
